Assay results reported in ChEMBL document CHEMBL4828766 (J Med Chem, 2021).
Active and inactive are the calls of the source. No cut-off for these calls is given here. Square brackets hold non-standard residues; d marks the D form. Peptide text beside a SMILES is read from it. Phe(4-I) = N[C@@H](Cc1ccc(I)cc1)C(=O)O; dPhe(4-I) = N[C@H](Cc1ccc(I)cc1)C(=O)O; 2Nal = N[C@@H](Cc1ccc2ccccc2c1)C(=O)O; d2Nal = N[C@H](Cc1ccc2ccccc2c1)C(=O)O

Experiments:
[1] = target: T1, Melanocortin receptor 4 (Mus musculus, UniProt P56450); test: Antagonist activity at mouse melanocortin receptor 4 expressed in HEK293 cells assessed as inhibition of NDP-MSH-induced cAMP accumulation incubated for 2 hrs by cAMP Alpha-screen assay based Schild analysis; assay type: functional, cell-based; details: for Kb: read-out: pA2 (converted)
[2] = target: Melanocyte-stimulating hormone receptor (Mus musculus, UniProt Q01727); test: Partial agonist activity at mouse MC1R expressed in HEK293 cells assessed as induction of cAMP level incubated for 2 hr by alphaScreen assay; assay type: functional, cell-based
[3] = target: T1, Melanocortin receptor 4; test: Agonist activity at mouse MC4R expressed in HEK293 cells assessed as induction of cAMP level incubated for 2 hr by alphaScreen assay; assay type: functional, cell-based
[4] = target: T2, Melanocortin receptor 3 (Mus musculus, UniProt P33033); test: Agonist activity at mouse MC3R expressed in HEK293 cells assessed as induction of cAMP level incubated for 2 hr by alphaScreen assay; assay type: functional, cell-based
[5] = target: T2, Melanocortin receptor 3; test: (§1) Antagonist activity at mouse melanocortin receptor 3 expressed in HEK293 cells assessed as inhibition of NDP-MSH-induced cAMP accumulation incubated for 2 hrs by cAMP Alpha-screen assay based Schild analysis; assay type: functional, cell-based; details: for Kb: read-out: pA2 (converted)
[6] = target: Melanocortin receptor 5 (Mus musculus, UniProt P41149); test: Agonist activity at mouse MC5R expressed in HEK293 cells assessed as induction of cAMP level at 100 uM incubated for 2 hr by alphaScreen assay; assay type: functional, cell-based
[7] = target: Melanocyte-stimulating hormone receptor (Mus musculus) (UniProt Q01727); test: Partial agonist activity at mouse MC1R expressed in HEK293 cells assessed as induction of cAMP level at 100 uM incubated for 2 hr by alphaScreen assay relative to control; assay type: functional, cell-based
[8] = target: Melanocortin receptor 4 (Mus musculus) (UniProt P56450); test: (§2) Agonist activity at mouse MC4R expressed in HEK293 cells assessed as induction of cAMP level at 100 uM incubated for 2 hr by alphaScreen assay relative to control; assay type: functional, cell-based; details: filed as agonist
Target sequence in this assay (P56450 whole entry): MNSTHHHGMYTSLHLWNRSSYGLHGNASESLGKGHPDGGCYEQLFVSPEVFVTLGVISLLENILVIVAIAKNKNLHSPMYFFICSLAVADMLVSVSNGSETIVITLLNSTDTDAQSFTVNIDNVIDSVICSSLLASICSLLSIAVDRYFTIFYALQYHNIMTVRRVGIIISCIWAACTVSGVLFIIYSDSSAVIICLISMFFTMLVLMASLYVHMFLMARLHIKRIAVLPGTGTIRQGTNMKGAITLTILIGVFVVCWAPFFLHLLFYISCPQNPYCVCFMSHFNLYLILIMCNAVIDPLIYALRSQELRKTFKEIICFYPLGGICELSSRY

[9] = target: Melanocortin receptor 3 (Mus musculus) (UniProt P33033); test: Agonist activity at mouse MC3R expressed in HEK293 cells assessed as induction of cAMP level at 100 uM incubated for 2 hr by alphaScreen assay relative to control; assay type: functional, cell-based
[10] = target: Melanocortin receptor 5 (Mus musculus) (UniProt P41149); test: Agonist activity at mouse MC5R expressed in HEK293 cells assessed as induction of cAMP level at 100 uM incubated for 2 hr by alphaScreen assay relative to control; assay type: functional, cell-based
[11] = target: Melanocortin receptor 4 (Homo sapiens) (UniProt P32245); test: Inhibition of [125 I][Nle 4,D -Phe 7]alpha-MSH binding to human MC4R expressed in African green monkey COS-1 cell membrane by gamma-counter method; assay type: cell membranes
[12] = target: Melanocortin receptor 3 (Homo sapiens) (UniProt P41968); test: Inhibition of [125 I][Nle 4,D -Phe 7]alpha-MSH binding to human MC3R expressed in African green monkey COS-1 cell membrane by gamma-counter method; assay type: cell membranes
[13] = target: T1, Melanocortin receptor 4; test: as §2; assay type: functional, cell-based
[14] = target: Melanocyte-stimulating hormone receptor (Mus musculus) (UniProt Q01727); test: Agonist activity at mouse MC1R expressed in HEK293 cells assessed as induction of cAMP level at 100 uM incubated for 2 hr by alphaScreen assay relative to NDP-MSH; assay type: functional, cell-based; details: filed as agonist
[15] = target: Melanocortin receptor 3 (Mus musculus) (UniProt P33033); test: as §1; assay type: functional, cell-based
[16] = target: Melanocortin receptor 4 (Mus musculus) (UniProt P56450); test: Antagonist activity at mouse melanocortin receptor 4 expressed in HEK293 cells assessed as inhibition of NDP-MSH-induced cAMP accumulation incubated for 2 hrs by cAMP Alpha-screen assay based Schild analysis
Target sequence in this assay (P56450 whole entry, looked up): as the sequence (P56450 whole entry) above

Chain of Melanocortin receptor 3 (Mus musculus) (P33033 whole entry): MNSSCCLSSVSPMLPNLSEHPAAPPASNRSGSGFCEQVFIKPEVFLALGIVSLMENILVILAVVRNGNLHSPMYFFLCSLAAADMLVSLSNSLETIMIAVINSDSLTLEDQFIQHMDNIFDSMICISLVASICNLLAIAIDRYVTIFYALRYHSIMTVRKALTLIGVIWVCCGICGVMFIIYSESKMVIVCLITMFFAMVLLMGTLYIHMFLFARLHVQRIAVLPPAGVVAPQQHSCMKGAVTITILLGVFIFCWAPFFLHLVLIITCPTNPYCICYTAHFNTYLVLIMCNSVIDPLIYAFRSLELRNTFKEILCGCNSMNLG
T2 sequence (P33033 whole entry): as above
Chain of Melanocortin receptor 5 (P41149 whole entry): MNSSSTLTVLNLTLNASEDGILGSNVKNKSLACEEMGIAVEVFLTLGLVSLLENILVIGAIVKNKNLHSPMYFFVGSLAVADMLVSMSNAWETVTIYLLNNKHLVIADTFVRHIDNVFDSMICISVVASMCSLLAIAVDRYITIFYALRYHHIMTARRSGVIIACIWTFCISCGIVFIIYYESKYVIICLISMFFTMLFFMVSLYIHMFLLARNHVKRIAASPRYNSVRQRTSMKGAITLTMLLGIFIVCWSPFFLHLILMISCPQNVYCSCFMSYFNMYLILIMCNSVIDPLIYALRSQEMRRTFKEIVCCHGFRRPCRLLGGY
Chain of Melanocyte-stimulating hormone receptor (Q01727 whole entry): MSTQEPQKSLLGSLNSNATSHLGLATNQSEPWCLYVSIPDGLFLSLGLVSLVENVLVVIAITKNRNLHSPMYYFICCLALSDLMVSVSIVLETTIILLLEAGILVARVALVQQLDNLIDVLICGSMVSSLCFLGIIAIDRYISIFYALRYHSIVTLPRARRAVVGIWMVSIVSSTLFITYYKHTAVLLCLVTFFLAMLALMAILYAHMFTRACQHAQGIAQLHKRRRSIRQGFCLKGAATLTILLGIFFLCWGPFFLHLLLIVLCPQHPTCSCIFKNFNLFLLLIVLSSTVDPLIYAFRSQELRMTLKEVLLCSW
Chain of Melanocyte-stimulating hormone receptor (Mus musculus) (Q01727 whole entry, looked up): as the sequence (Q01727 whole entry) above
T1 sequence (P56450 whole entry): as the sequence (P56450 whole entry) above
Chain of Melanocortin receptor 5 (Mus musculus) (P41149 whole entry): as the sequence (P41149 whole entry) above
Chain of Melanocortin receptor 3 (Homo sapiens) (P41968 whole entry): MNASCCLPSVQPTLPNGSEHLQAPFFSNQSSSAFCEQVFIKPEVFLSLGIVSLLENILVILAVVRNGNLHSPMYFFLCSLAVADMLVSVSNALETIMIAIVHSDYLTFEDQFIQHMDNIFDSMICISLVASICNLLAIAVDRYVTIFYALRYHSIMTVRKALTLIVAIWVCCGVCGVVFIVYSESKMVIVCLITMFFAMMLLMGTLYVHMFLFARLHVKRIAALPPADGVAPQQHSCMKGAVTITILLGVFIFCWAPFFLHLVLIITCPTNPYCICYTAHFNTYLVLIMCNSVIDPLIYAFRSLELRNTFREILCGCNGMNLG
Chain of Melanocortin receptor 4 (Homo sapiens) (P32245 whole entry): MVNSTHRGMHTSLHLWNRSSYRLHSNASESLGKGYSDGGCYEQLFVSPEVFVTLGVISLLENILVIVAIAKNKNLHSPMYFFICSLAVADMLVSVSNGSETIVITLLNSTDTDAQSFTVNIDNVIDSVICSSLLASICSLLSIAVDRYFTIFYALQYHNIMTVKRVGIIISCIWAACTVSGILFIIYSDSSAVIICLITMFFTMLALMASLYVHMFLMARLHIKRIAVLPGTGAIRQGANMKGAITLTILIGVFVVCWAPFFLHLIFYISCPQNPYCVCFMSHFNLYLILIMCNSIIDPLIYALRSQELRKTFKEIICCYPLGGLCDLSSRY

SMILES	Kb [1] [µM]	EC50 [2] [µM]	EC50 [3] [µM]	EC50 [4] [µM]	Kb [5] [µM]	EC50 [6] [µM]	Activity ([7]; filed as partial agonist) [%]	other results
CC(=O)N[C@H](Cc1ccc2ccccc2c1)C(=O)N[C@@H](CCCNC(=N)N)C(=O)N[C@@H](Cc1ccc2ccccc2c1)C(=O)N[C@H](CCCCN)C(N)=O (Ac-[d2Nal]R[2Nal][dK]-NH2)	0.0158	3.3	> 100	> 100	0.631	> 100	50	–
CC(=O)N[C@H](Cc1ccc2ccccc2c1)C(=O)N[C@@H](CCCNC(=N)N)C(=O)N[C@H](Cc1ccc2ccccc2c1)C(=O)N[C@H](Cc1ccc2ccccc2c1)C(N)=O (Ac-[d2Nal]R[d2Nal][d2Nal]-NH2)	0.501	5	–	–	2	–	85	Activity [8]: 45%; Activity ([9]; filed as agonist): 50%; Activity [10]: 20%
CC(=O)N[C@@H](Cc1ccc2ccccc2c1)C(=O)N[C@@H](CCCNC(=N)N)C(=O)N[C@@H](Cc1ccc2ccccc2c1)C(N)=O	–	–	–	–	–	–	–	Activity [11]: 11.6 nM; Activity [12]: 1120 nM
CC(=O)N[C@H](Cc1ccc(I)cc1)C(=O)N[C@H](Cc1ccc2ccccc2c1)C(=O)N[C@@H](Cc1ccc2ccccc2c1)C(=O)N[C@H](CCCCN)C(N)=O (Ac-[dPhe(4-I)][d2Nal][2Nal][dK]-NH2)	> 3.16	–	> 100	–	> 3.16	–	–	EC50 [13]: > 100 µM; Activity [14]: 40%; Activity [9]: 20%; Activity ([10]; filed as agonist): 50%
CC(=O)N[C@H](Cc1ccc2ccccc2c1)C(=O)N[C@@H](CCCNC(=N)N)C(=O)N[C@H](Cc1ccc2ccccc2c1)C(=O)N[C@@H](CCCNC(=N)N)C(N)=O (Ac-[d2Nal]R[d2Nal]R-NH2)	0.00501	1	> 100	> 100	0.794	> 100	60	–
CC(=O)N[C@H](Cc1ccc2ccccc2c1)C(=O)N[C@@H](CCCNC(=N)N)C(=O)N[C@H](Cc1ccc2ccccc2c1)C(=O)N[C@H](CCCCN)C(N)=O (Ac-[d2Nal]R[d2Nal][dK]-NH2)	0.00631	6	> 100	> 100	1	> 100	–	Activity [7]: 30%
CC(=O)N[C@@H](Cc1ccc(I)cc1)C(=O)N[C@@H](Cc1ccc2ccccc2c1)C(=O)N[C@@H](Cc1ccc(I)cc1)C(=O)N[C@@H](CCCNC(=N)N)C(N)=O (Ac-[Phe(4-I)][2Nal][Phe(4-I)]R-NH2)	–	–	> 100	> 100	–	> 100	–	pA2 [15]: inactive; Activity [14]: 60%; pA2 [16]: inactive
CC(=O)N[C@H](Cc1ccc(I)cc1)C(=O)N[C@@H](CCCNC(=N)N)C(=O)N[C@@H](Cc1c[nH]c2ccccc12)C(=O)N[C@@H](CCCNC(=N)N)C(N)=O (Ac-[dPhe(4-I)]RWR-NH2)	0.002	7.9	> 100	–	0.0398	> 100	50	Ki [1]: 0.002 µM; Ki [5]: 0.04 µM; Activity [9]: 25%
